Experimental data from patent US20250195483A1, “SPIRO PIPERIDINE DERIVATIVES AS INHIBITORS OF APOL1 AND METHODS OF USING SAME” (Vertex Pharmaceuticals Incorporated, priority 2022, published 2025).

Each molecule was assayed against T1, APOL1 (Homo sapiens, UniProt O14791) (assay: MultiTox-Fluor Multiplex Cytotoxicity Assay, tet-inducible APOL1 T-REx-HEK293 cells (G0, G1 or G2 clone not specified for Table 20)). Details: tet-induced, 24 hours with compound, ratio of dead to live cells, read-out: IP50 (i.e., IC50 for cell proliferation).
T1 sequence (O14791 1-398): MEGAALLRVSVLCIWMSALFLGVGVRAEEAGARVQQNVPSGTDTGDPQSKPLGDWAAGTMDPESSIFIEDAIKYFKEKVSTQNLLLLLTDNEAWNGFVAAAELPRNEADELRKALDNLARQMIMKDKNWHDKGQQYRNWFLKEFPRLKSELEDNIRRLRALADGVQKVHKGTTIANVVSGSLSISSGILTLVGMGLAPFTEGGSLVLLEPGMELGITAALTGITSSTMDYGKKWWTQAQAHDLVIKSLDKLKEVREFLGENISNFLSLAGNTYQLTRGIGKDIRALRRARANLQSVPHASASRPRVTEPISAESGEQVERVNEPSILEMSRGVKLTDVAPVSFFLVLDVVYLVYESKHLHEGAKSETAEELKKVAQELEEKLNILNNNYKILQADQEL
Format: cell-based
Method: Human embryonic kidney (HEK293) cell lines containing a tet-inducible expression system (T-REx™; Invitrogen, Carlsbad, CA) and Adeno-associated virus site 1 pAAVS1-Puro-APOL1 G0 or pAAVS1-Puro-APOL1 G1 or pAAVS1-Puro-APOL1 G2 Clones G0 DC2.13, G1 DC3.25, and G2 DC4.44 were grown in a T-225 flask at ˜90% confluency in cell growth media (DMEM, 10% Tet-free FBS, 2 mM L-glutamine, 100 Units/mL penicillin-streptomycin, 5 μg/mL blasticidin S HCl, 1 μg/mL puromycin dihydrochloride). Cells were washed with DPBS and then trypsinized to dissociate from the flask. Media was used to quench the trypsin, cells were then pelleted at 200 g and resuspended in fresh cell assay media (DMEM, 2% Tet-free FBS, 2 mM L-glutamine, 100 Units/mL penicillin-streptomycin). Cells were counted and diluted to 1.17×10^6 cells/mL. 20 μL of cells (23,400/well) were dispensed in every well of a 384-well Poly-D-Lysine coated plate using the Multidrop dispenser. The plates were then incubated at room temperature for one hour.
Tetracycline is needed to induce APOL1 expression. 1 mg/mL tet stock in water was diluted to 250 ng/mL (5×) in cell assay media. 60 μL of cell assay media (no tet control) was dispensed in columns 1 and 24, and 60 μL of 5× tet in 384-PP-round bottom plate was dispensed in columns 2 to 23 with the Multidrop dispenser.
Assay ready plates from the Global Compound Archive were ordered using template 384_APOL1Cell_DR10n2_50 uM_v3. Compounds were dispensed at 200 nL in DMSO. The final top concentration was 10 μM with a 10 point 3-fold dilution in duplicate in the MultiTox assay.
20 μL was transferred from the 5× tet plate to the ARP and mixed, then 5 μL of 5× tet and the compounds were transferred to the cell plate and mixed using the Bravo. The cell plate was placed in the humidified 37° C. 5% CO2 incubator for 24 hours.
The MultiTox-Fluor Multiplex Cytotoxicity Assay was performed in accordance with the manufacturer's protocol. After cells were incubated with tet and compound for 24 hours, 25 μL of 1× MultiTox reagent was added to each well using the Multidrop dispenser; the plates were placed on a plate shaker (600 rpm) for 2 minutes, then centrifuged briefly and placed back in the 37° C. incubator for 30 minutes. The cell viability (excitation: 400 nm, emission: 486 nm) and cytotoxicity (excitation: 485 nm, emission: 535 nm) were read using the EnVision plate reader. A ratio of dead (cytotoxicity) to live (viability) cells was reported. Data was exported and analyzed in Genedata. Data was normalized using percent of control, no tet (100% viability), and 50 ng/mL tet treated (0% viability), and fit using Smart Fit settings in Genedata.

| Compound | IC50 |
| --- | --- |
| NC(=O)C1OC2(CCN(Cc3cnn(-c4ccccc4)c3)CC2)c2cc(Cl)ccc21 (single isomer, unassigned) [Compound 193, 5-chloro-1′-[(1-phenylpyrazol-4-yl)methyl]spiro[1H-isobenzofuran-3,4′-piperidine]-1-carboxamide] | 50 to 500 nM |
| NC(=O)C1OC2(CCN(Cc3cnn(-c4ccccc4)c3)CC2)c2cc(Cl)ccc21 (single isomer, unassigned) [Compound 194, 5-chloro-1′-[(1-phenylpyrazol-4-yl)methyl]spiro[1H-isobenzofuran-3,4′-piperidine]-1-carboxamide] | ≤ 50 nM |
| Cc1ccc2c(c1)C1(CCN(Cc3cn(CCS(C)(=O)=O)nn3)[C@@H](C)C1)OC2(C)C (single isomer, unassigned) [Compound 290, (2′S)-2′,3,3,6-tetramethyl-1′-((1-(2-(methylsulfonyl)ethyl)-1H-1,2,3-triazol-4-yl)methyl)-3H-spiro[isobenzofuran-1,4′-piperidine]] | ≥ 500 nM |
| C[C@H]1CC2(CCN1Cc1cn(CCS(C)(=O)=O)nn1)OC(C)(C)c1ccc(Cl)cc12 (single isomer, unassigned) [Compound 291, (2′S)-5-chloro-1,1,2′-trimethyl-1′-[[1-(2-methylsulfonylethyl)triazol-4-yl]methyl]spiro[isobenzofuran-3,4′-piperidine]] | ≥ 500 nM |
| C[C@H]1CC2(CCN1Cc1cnn(-c3ccccc3)c1)OC(C(N)=O)c1ccc(Cl)cc12 (single isomer, unassigned) [Compound 293, (2′S)-5-chloro-2′-methyl-1′-[(1-phenylpyrazol-4-yl)methyl]spiro[1H-isobenzofuran-3,4′-piperidine]-1-carboxamide] | 50 to 500 nM |
| CNC(=O)C1OC2(CCN(Cc3cnn(-c4ccccc4)c3)[C@@H](C)C2)c2cc(Cl)ccc21 (single isomer, unassigned) [Compound 294, (2′S)-5-chloro-N,2′-dimethyl-1′-[(1-phenylpyrazol-4-yl)methyl]spiro[1H-isobenzofuran-3,4′-piperidine]-1-carboxamide] | ≥ 500 nM |
| C[C@H]1CC2(CCN1Cc1cnn(CCS(C)(=O)=O)c1)CC(O)c1ccc(Cl)cc12 (single isomer, unassigned) [Compound 306, (2′S)-5-chloro-2′-methyl-1′-[[1-(2-methylsulfonylethyl)pyrazol-4-yl]methyl]spiro[indane-3,4′-piperidine]-1-ol] | ≤ 50 nM |
| C[C@H]1CC2(CCN1Cc1cnn(CCS(C)(=O)=O)c1)CC(O)c1ccc(Cl)cc12 (single isomer, unassigned) [Compound 307, (2′S)-5-chloro-2′-methyl-1′-[[1-(2-methylsulfonylethyl)pyrazol-4-yl]methyl]spiro[indane-3,4′-piperidine]-1-ol] | ≤ 50 nM |
| C[C@H]1CC2(CCN1Cc1cnn(CCS(C)(=O)=O)c1)C(=O)Nc1ccc(Cl)cc12 (stereo in doubt) [Compound 74, (2′S, 3R)-5-chloro-2′-methyl-1′-[[1-(2-methylsulfonylethyl)pyrazol-4-yl]methyl]spiro[indoline-3,4′-piperidine]-2-one] | ≥ 500 nM |
| CS(=O)(=O)CCn1cc(CN2CCC3(CC2)C(=O)Nc2ccc(Cl)cc23)cn1 [Compound 1, 5-chloro-1′-[[1-(2-methylsulfonylethyl)pyrazol-4-yl]methyl]spiro[indoline-3,4′-piperidine]-2-one] | 50 to 500 nM |
| CC(CO)(CO)Cn1cc(CN2CCC3(CC2)C(=O)Nc2ccc(Cl)cc23)cn1 [Compound 2] | ≤ 50 nM |
| Nc1ncc(CN2CCC3(CC2)C(=O)Nc2ccc(Cl)cc23)s1 [Compound 3] | 50 to 500 nM |
| O=C1Nc2ccc(Cl)cc2C12CCN(Cc1cnn(CCO)c1)CC2 [Compound 4] | ≥ 500 nM |
| COc1cncc(CN2CCC3(CC2)C(=O)Nc2ccc(Cl)cc23)c1 [Compound 5] | ≥ 500 nM |
| CC(=O)Nc1ccc(CN2CCC3(CC2)C(=O)Nc2ccc(Cl)cc23)cc1 [Compound 6] | 50 to 500 nM |
| CC(C)Oc1ccc(CN2CCC3(CC2)C(=O)Nc2ccc(Cl)cc23)cc1 [Compound 7] | 50 to 500 nM |
| COc1ccc(CN2CCC3(CC2)C(=O)Nc2ccc(Cl)cc23)cc1F [Compound 8] | 50 to 500 nM |
| CN(C)c1ncc(CN2CCC3(CC2)C(=O)Nc2ccc(Cl)cc23)cn1 [Compound 9] | 50 to 500 nM |
| CC(C)(CO)Nc1ncc(CN2CCC3(CC2)C(=O)Nc2ccc(Cl)cc23)cn1 [Compound 10] | 50 to 500 nM |
| O=C1Nc2ccc(Cl)cc2C12CCN(Cc1cn[nH]c1)CC2 [Compound 11] | 50 to 500 nM |
| CCO/N=C(\C)c1ccc(CN2CCC3(CC2)C(=O)Nc2ccc(Cl)cc23)cn1 [Compound 12] | 50 to 500 nM |
| Cn1cc(CN2CCC3(CC2)C(=O)Nc2ccc(Cl)cc23)cn1 [Compound 13] | 50 to 500 nM |
| O=C1Nc2ccc(Cl)cc2C12CCN(Cc1cccc(OC(F)F)c1)CC2 [Compound 14] | ≥ 500 nM |

| Compound | IC50 |
| --- | --- |
| N#Cc1ccc(CN2CCC3(CC2)C(=O)Nc2ccc(Cl)cc23)c(F)c1 [Compound 15] | ≥ 500 nM |
| O=C1Nc2ccc(Cl)cc2C12CCN(Cc1ccc(OC(F)F)cc1)CC2 [Compound 19] | ≥ 500 nM |
| N#Cc1cc(CN2CCC3(CC2)C(=O)Nc2ccc(Cl)cc23)ccn1 [Compound 20] | ≥ 500 nM |
| CS(=O)(=O)CCn1cc(CN2CCC3(CC2)C(=O)Nc2ccc(F)cc23)cn1 [Compound 21] | ≥ 500 nM |
| CS(=O)(=O)CCn1cc(CN2CCC3(CC2)C(=O)Nc2ccc(Br)cc23)cn1 [Compound 22] | 50 to 500 nM |
| Cc1ccc2c(c1)C1(CCN(Cc3cnn(CCS(C)(=O)=O)c3)CC1)C(=O)N2 [Compound 23] | 50 to 500 nM |
| Cc1ccc2c(c1)C1(CCN(Cc3cnn(CC4(C)COC4)c3)CC1)C(=O)N2 [Compound 24] | ≥ 500 nM |
| Cc1ccc2c(c1)C1(CCN(Cc3cnn(CC(=O)N(C)C)c3)CC1)C(=O)N2 [Compound 25] | ≥ 500 nM |
| Cc1ccc2c(c1)C1(CCN(Cc3cnn(CCO)c3)CC1)C(=O)N2 [Compound 26] | ≥ 500 nM |
| COCCn1cc(CN2CCC3(CC2)C(=O)Nc2ccc(C)cc23)cn1 [Compound 27] | ≥ 500 nM |
| CNC(=O)Cn1cc(CN2CCC3(CC2)C(=O)Nc2ccc(C)cc23)cn1 [Compound 28] | ≥ 500 nM |
| CS(=O)(=O)CCn1cc(CN2CCC3(CC2)C(=O)Nc2c(CO)cc(Cl)cc23)cn1 [Compound 29] | ≤ 50 nM |
| CS(=O)(=O)CCn1cc(CN2CCC3(CC2)C(=O)Nc2ccc(C#N)cc23)cn1 [Compound 30] | ≥ 500 nM |
| CS(=O)(=O)CCn1cc(CN2CCC3(CC2)C(=O)Nc2ccc(CC(F)F)cc23)cn1 [Compound 31] | ≥ 500 nM |
| CS(=O)(=O)CCn1cc(CN2CCC3(CC2)C(=O)Nc2ccc(C(F)C(F)F)cc23)cn1 (stereo not drawn) [Compound 32] | ≥ 500 nM |
| CS(=O)(=O)CCn1cc(CN2CCC3(CC2)C(=O)Nc2ccc(C(F)F)cc23)cn1 [Compound 33] | 50 to 500 nM |
| Cn1cc(CN2CCC3(CC2)C(=O)Nc2ccc(CC(F)F)cc23)cn1 [Compound 34] | ≥ 500 nM |
| O=C1Nc2ccc(CC(F)F)cc2C12CCN(Cc1cn[nH]c1)CC2 [Compound 35] | ≥ 500 nM |
| CS(=O)(=O)CCn1cc(CN2CCC3(CC2)C(=O)Nc2c(Cl)cc(Cl)cc23)cn1 [Compound 36] | 50 to 500 nM |
| CN1C(=O)C2(CCN(Cc3cnn(CCS(C)(=O)=O)c3)CC2)c2cc(Cl)ccc21 [Compound 37, 5-chloro-1-methyl-1′-[[1-(2-methylsulfonylethyl)pyrazol-4-yl]methyl]spiro[indoline-3,4′-piperidine]-2-one] | 50 to 500 nM |
| CN1C(=O)C2(CCN(Cc3cn[nH]c3)CC2)c2cc(Cl)ccc21 [Compound 38] | 50 to 500 nM |
| CN1C(=O)C2(CCN(Cc3cnn(C)c3)CC2)c2cc(Cl)ccc21 [Compound 39] | 50 to 500 nM |
